Literature values, collected in US6623768B1, “Pharmaceutically active composition extracted from Ferula hermonis and process of its extraction” (priority 2002, dated 2003).

Tested on: adult female rats

COc1cc(C(=O)O[C@H]2CC(C)=CC[C@@]3(C)CC[C@@](O)(C(C)C)[C@H]23)ccc1O [jaeschkeanadiol vanillate]
prevention of pregnancy (administered orally on 1 to 7 post coitum, adult female rats): prevent pregnancy
prevention of pregnancy after single dose (single oral administration of 5 mg per kg on the first day of post coitum, rats): prevented pregnancy
